Test results as given in US20010052137A1, “Axin domain-like polypeptide inhibitors of glycogen synthase kinase 3 beta activity and activators of wnt signaling” (Trustees of the University of Pennsylvania, priority 2000, published 2001).
Ends that are not written are not given here.

How the values were obtained:
[1] = tested on: LEF-1 dependent transcription (wnt signaling); assay: LEF-luciferase reporter of wnt signaling in 293T cells; assay type: cell-based; conditions: at 37°
Experimental: LEF-1 (also designated tcf) is a DNA-binding protein that also binds with beta-catenin. The beta-catenin/LEF-1 complex is known to activate transcription of wnt target genes. A genetic construct was made which comprised this LEF-1-binding promoter operably linked with a luciferase gene, for use as a reporter of wnt signaling.
Single plasmids encoding individual GID fragments were transfected into 293T cells, together with the LEF-luciferase reporter, and luciferase activity was measured after 24 hours. GID fragments induced up to 100- to 250-fold activation of LEF-luciferase (normalized to activity from the mutated LEF-reporter control, which was activated less than 2-fold).

GSK-3 beta [2] = assay: Co-immunoprecipitation of GSK-3 beta with Myc-tagged Xaxin constructs in Xenopus oocytes; assay type: binding; conditions: Myc-tagged construct co-expressed with GSK-3 beta in Xenopus oocytes; anti-Myc IP, anti-GSK-3 beta blot
GSK-3 beta [3] = assay: In ovo tau phosphorylation assay: GSK-3 beta and Xaxin constructs co-expressed in Xenopus oocytes; assay type: cell-based; conditions: construct co-expressed with GSK-3 beta in Xenopus oocytes; tau microinjected; PHF-1 immunoblot
Experimental: Stage VI Xenopus oocytes were isolated by collagenase treatment (Smith et al., 1994, Meth. Cell Biol. 36:45-58) and were injected with mRNA prepared by in vitro transcription (mMessage Machine™; Ambion, Austin, Tex.). 10 nanoliters of mRNA (containing 1-2 nanograms per nanoliter) was injected for each construct (unless otherwise specified), and the injected oocytes were incubated for 16 hours at 18° C. To analyze the effects of Xaxin constructs on dorsal-ventral pattern formation, Xenopus embryos were injected with 10 nanoliters of mRNA (0.1-0.2 nanogram per nanoliter) into one dorsal or ventral cell of a 4 cell embryo and dorsal axes were assessed at the tadpole stage. For Xaxin co-immunoprecipitation, fertilized eggs were injected with 10 nanoliters of Xaxin tagged with Myc, with hemagglutinin, or with both Myc and hemagglutinin (1 nanogram per nanoliter) and harvested at the blastula stage (stage 8).
In ovo phosphorylation of tau by GSK-3 beta was performed by microinjection of tau protein into oocytes expressing GSK-3 beta and Xaxin constructs. After 90 minutes, oocytes were homogenized and tau phosphorylation was analyzed in western blots using phospho-specific antibodies as described (Hedgepeth et al., 1997, Develop. Biol. 185:82-91). In vitro assays for GSK-3 beta activity were performed as described (Klein et al., 1996, Proc. Natl. Acad. Sci. USA 93:8455-8459). Recombinant GID-2/his protein (described below) was purified by affinity chromatography and added to in vitro assays at selected concentrations. […]
GSK-3 beta was expressed in oocytes together with Myc-tagged full length Xaxin or with the amino-terminal (amino acid residues 63-288), GID-1 (amino acid residues 277-545), or carboxyl-terminal (amino acid residues 429-713) fragments of Xaxin, as depicted in FIG. 1A. Purified tau protein was then microinjected into the oocytes, and phosphorylation of tau was measured by immunoblotting using antibody PHF-1 or with antibodies that detect all (i.e. phosphorylated and non-phosphorylated) forms of tau. […]

| Substance | reduction of activity in LEF-luciferase assay compared to wild-type [1] | binding with GSK-3 beta (co-immunoprecipitation) (GSK-3 beta [2]) | GSK-3 beta-mediated tau phosphorylation (GSK-3 beta activity) (GSK-3 beta [3]) |
| --- | --- | --- | --- |
| GID5-6FY: GID mutant in which phenylalanine-388 is replaced with a tyrosine residue (DIHVDPEKYAAELISRLEGVLRDRE) | approximately 10 fold | – | – |
| GID-3: Myc-tagged fragment, Xaxin amino acid residues 320-375 (DSEQQSMSSDADTMSLTDSSVDGIPPYRLRKHYRREMQESANANGRGPLPHIPRTY; also: Myc-tagged fragment) | – | did not bind | no effect |
| GID-5: Myc-tagged fragment, Xaxin amino acid residues 380-429 (DIHVDPEKFAAELISRLEGVLRDREAEQKLEERLKRVRAEEEGDDGDVSS; also: Myc-tagged fragment) | – | bound | inhibited |
| GID-6: Myc-tagged fragment, Xaxin amino acid residues 380-404 (SEQ ID NO: 1) (DIHVDPEKFAAELISRLEGVLRDRE; also: Myc tag) | – | bound | inhibited |
